Data as given in US7955852B2, “Expansion of renewable stem cell populations” (Gamida Cell Ltd., priority 2002, dated 2011).

Columns and labels:
CD34+ cells [1] = experiment: Ex-vivo expansion of CD34+ cell enriched cord blood cultures with cytokines; cell counts and FACS surface antigen analysis; type: cell-based, human; settings: for No. of CD34+ cells: treated for one week only; for % 34+ cells / % 34+/38− cells / % 34+/Lin− cells / No. of cells (×10^4): two weeks after seeding, 4 cytokines
Procedure: Human blood cells were obtained from umbilical cord blood from female patients following full-term, normal delivery (informed consent was obtained).
Samples were collected and processed within 12 hours postpartum. Blood was mixed with 3% Gelatin (Sigma, St. Louis, Mo.), sedimented for 30 minutes to remove most red blood cells. […] The mononuclear cell fraction in the interface layer was collected, washed three times and resuspended in phosphate-buffered saline (PBS) solution (Biological Industries) containing 0.5% bovine serum albumin (BSA, Fraction V; Sigma).
To purify CD34^+ mononuclear cells, the fraction was subjected to two cycles of immuno-magnetic separation using the MiniMACS® or Clinimax® CD34 Progenitor Cell Isolation Kit (Miltenyi Biotec, Auburn, Calif.) as per manufacturer's recommendations.
CD34^+ expressing purified cells above were cultured in 24-well Costar Cell Culture Clusters (Corning Inc., Corning, N.Y.) or culture bags (American Fluoroseal Corp), at a concentration of 10^4 cells/ml in alpha medium (Biological Industries, Beit Haemek, Israel) supplemented with 10% fetal bovine serum (FBS, Biological Industries). The following human recombinant cytokines were added: Thrombopoietin (TPO), interleukin-6 (IL-6), FLT-3 ligand and stem cell factor (SCF), all at final concentrations of 50 ng/ml each, though occasionally IL-3, at a concentration of 20 ng/ml, was added either together or instead of SCF. For non-hematopoietic cell differentiation, FGF, EGF, NGF, VEGF, LIF or Hepatocyte growth factor (HGF) were used to supplement the growth medium, either alone or in various combinations. All cytokines used were purchased from Perpo Tech, Inc. (Rocky Hill, N.J.). The cultures were incubated at 37° C., 5% CO2, in a humidified atmosphere.
At weekly intervals, cell cultures were toped and semi-depopulated and were supplemented with fresh medium, serum and cytokines or supplemented with fresh growth medium, alone. At predetermined time points, cells were harvested, stained with trypan blue, counted, and cell morphology was determined via the use of cytospin (Shandon, UK)-prepared smears stained with May-Grunwald/Giemsa solutions.
CD34^+ purified and whole MNC cultures were prepared and maintained as described above. […] The antagonist was added for a predetermined, limited period, for up to three weeks or continuously during the entire culture period.
Cells were harvested, washed with a PBS solution containing 1% bovine sera albumin (BSA) and 0.1% sodium azide (Sigma), and stained at 4° C. for 60 minutes with fluorescein isothiocyanate or phycoerythrin-conjugated antibodies (all from Immunoquality Products, the Netherlands). The cells were then washed with the same buffer and analyzed by FACS caliber or Facstarplus flow cytometers. Cells were passed at a rate of 1000 cells/second, using saline as the sheath fluid. A 488 nm argon laser beam served as the light source for excitation. Emission of ten thousand cells was measured using logarithmic amplification, and analyzed using CellQuest software. Negative control staining of cells was accomplished with mouse IgG-PE (Dako A/S Glostrup, Denmark) and mouse IgG-FITC (BD Biosciences, Erembodegem, Belgium).
CD34 surface expression on short and long-term cultures initiated either with purified CD34^+ cells or the entire MNC fraction was determined as follows: CD34^+ cells were positively reselected (Miltenyi kit) and counted. Purity was confirmed by subsequent FACS and cell morphology analysis.
Reselected CD34^+ cell subsets were stained for the following combination of antigens: CD34PE/CD38FITC and CD34PE/38, 33, 14, 15, 3, 4, 61, 19 (Lin) FITC. The fraction positive for CD34 and negative for CD38 was defined as CD34^+CD38^−. The fraction positive for CD34 and negative for LIN was defined as CD34^+Lin^− cell fraction.
FACS analysis results are given as percentage values of cells. Absolute numbers of subsets are calculated from the absolute number of CD34^+ cells.

CD34+ cells [2] = experiment: Colony forming unit (CFU / LTC-CFUc) ability of ex-vivo CD34+ cell cultures; type: cell-based, human; settings: for No. of CFU*103: 10^−5 M, treated for one week only
Procedure: Total cell counts, numbers of CD34^+ cells and subsets, and CFU numbers are presented as cumulative numbers, with the assumption that the cultures had not been passaged; i.e., the number of cells per ml were multiplied by the number of passages performed.
Cells were cloned in semi-solid, methylcellulose-containing medium supplemented with 2 IU/ml erythropoietin (Eprex, Cilag AG Int., Switzerland), stem cell factor and IL-3, both at 20 ng/ml, and G-CSF and GM-CSF, both at 10 ng/ml (all from Perpo Tech). Cultures were incubated for 14 days at 37° C., 5% CO2 in a humidified atmosphere.
Briefly, the ability of the cultures to maintain self-renewal was measured by determination of the content of colony forming unit cells in the long and extended long-term cultures (LTC-CFUc), as described in the references hereinabove.

[3] = 2 weeks expansion, re-selected CD34+ cell fraction (FIG. 2)

CCc1ccc(C2=CC(C)(C)Sc3ccc(C#Cc4ccc(C(=O)O)cc4)cc32)cc1 [AGN 194310, 4-[[4-(4-ethylphenyl)-2,2-dimethyl-(2H)-thiochroman-6-yl]-ethynyl]benzoic acid]
increase in CD34+CD38− surface expression (CD34+ cells [1]; [3]): 1000 fold | increase in CD34+Lin− surface expression (CD34+ cells [1]; [3]): 500 fold | No. of CD34+ cells (CD34+ cells [1]; 10^−5 M, week 13): 10322 | No. of CD34+ cells (CD34+ cells [1]; 10^−5 M, week 20): 0 | % 34+ cells (CD34+ cells [1]; 10^−5 M): 18.94% | % 34+/38− cells (CD34+ cells [1]; 10^−5 M): 17.14% | % 34+/Lin− cells (CD34+ cells [1]; 10^−5 M): 15.18% | No. of cells (×10^4) (CD34+ cells [1]; 10^−5 M): 42 ×10^4 | % 34+ cells (CD34+ cells [1]; 10^−6 M): 19.59% | % 34+/38− cells (CD34+ cells [1]; 10^−6 M): 17.16% | % 34+/Lin− cells (CD34+ cells [1]; 10^−6 M): 11.91% | No. of cells (×10^4) (CD34+ cells [1]; 10^−6 M): 52 ×10^4 | time post initial seeding until which cell proliferation was enabled (CD34+ cells [1]; 10^−7 M or 0.41 microgram/liter (FIG. 4)): ≤ 11 weeks | activity on ex vivo expansion of stem/progenitor cells (CD34+ cells [1]; 10^−7 M, along with IL-3, 3 and 5 weeks): moderate activity | increase in CD34+Lin− surface expression (CD34+ cells [1]; after two weeks in culture, CD34+ re-selected fraction (FIG. 3C)): 530 fold | increase in CD34+ expression between week three to eleven (CD34+ cells [1]; antagonist for the first three weeks only, then eight weeks without): 92 fold | expression of differentiation associated antigens CD33, CD14, CD15, CD4, CD3, CD19 and CD61 (CD34+ cells [1]; two weeks, FACS (FIGS. 1A-C)): significantly inhibited | expression of the CD38 antigen (CD34+ cells [1]; two weeks, FACS (FIGS. 1A-C)): completely abolished | expansion of CD34+ compartment since the initiation of the cultures (CD34+ cells [1]; week 11, antagonist for the first three weeks only): 1621 fold | increase in CD34+Lin− expression (CD34+ cells [1]; week eleven, 9 weeks after termination of antagonist treatment): 16,700 fold | No. of CFU*103 (CD34+ cells [2]; week 13): 66355 *103 | No. of CFU*103 (CD34+ cells [2]; week 20): 0 *103 | increase of CFU content (CD34+ cells [2]; extended long-term (8-10 week) cultures, pulse-treatment or continuous treatment): 15 ×10^4 | increase in CFU content as compared to control (CD34+ cells [2]; long-term (6 weeks) cultures pulsed for the first 3 weeks): 5 fold | increase in CFU content as compared to control (CD34+ cells [2]; long-term cultures, antagonist administered continuously): 5 fold | mixed colony forming unit (CFU-mix) content vs control (CD34+ cells [2]; long-term cultures, pulsed first 3 weeks or continuous (FIG. 7)): dramatic increase
